Assay [1] deals with Mahlavu. As to the kind of experiment: NCI-60 sulforhodamine B (SRB) cytotoxicity assay, Mahlavu. The conditions noted are these: Homo sapiens, Mahlavu; SRB, 72 h, 2.5–40 μM, triplicate; read-out: IC50 Mahlavu. Format: cell-based, human. The method, then: (§1) The bioactivities of the synthesized chalcones were assessed on human liver cancer cell lines and on DPSCs with NCI-SRB assay in vitro. DPSCs used to asses the bioactivity of chalcones on untransformed control cells with the potential of hepatic lineage. […] We also included 5-Fluorouracil which is used in clinics for gastrointestinal cancers and Sorafenib. All results were normalized to DMSO negative control measurements. The experiment was performed in triplicate.
(§2) Well differentiated human primary liver cancer cell lines Huh7, HepG2 and Hep3B, and poorly differentiated Mahlavu, FOCUS and SNU475 HCC cells were cultured in Dulbecco’s Modified Eagle’s Standard (DMEM) medium supplemented with 10% Fetal Bovine Serum (FBS), 100 units/mL penicillin and 100 µg/mL streptomycin (Gibco, Invitrogen, Carlsbad, CA, USA). 0.1 mM nonessential amino acids (NEAA) which are specific to HCC cell lines also added to culture media. Cells were cultured in a 5% CO2 incubator at 37^∘C
(§3) Primary liver cancer cells Huh7, HepG2, Hep3B, Mahlavu, FOCUS, Snu475 along with hepatic progenitor Dental pulp stem cells were seeded into 96-well plates (1,000–3,000 HCC cell/well and 10,000 cells DPSC/well ) for 24 h. The cells were then treated with increasing concentrations of the chalcones ( 2.5-40μM ). DMSO (AppliChem Biochemica, Darmstadt, Germany) was used as negative control. The growth has stopped at the end of 72 h by fixing cold with 10% (v/v) trichloroacetic acid (Merck, Schuchardt, Germany). Cells were then stained with 0.4% (m/v) of sulforhodamine (Sigma-Aldrich, St. Louis, USA) in 1% acetic acid solution. […] All experiments were done in triplicate.
On the technique in general: In SRB staining, fixed cells bind dye roughly in proportion to their protein.

A further assay deals with SNU475. Nature of the assay: NCI-60 sulforhodamine B (SRB) cytotoxicity assay, SNU475. In kind it is cell-based, human. To be noted: Homo sapiens, SNU-475; SRB, 72 h, 2.5–40 μM, triplicate; read-out: IC50 SNU475. The method, then: as §1, §2, §3
The next assay relates to FOCUS. Nature of the assay: NCI-60 sulforhodamine B (SRB) cytotoxicity assay, FOCUS. Format: cell-based, human. The conditions noted are these: Homo sapiens; SRB, 72 h, 2.5–40 μM, triplicate; read-out: IC50 FOCUS. As for the experimental part: as §1, §2, §3
Assay [2] concerns Mahlavu. Nature of the assay: Real-time cell electronic sensing (RT-CES) growth analysis, Mahlavu. Format: cell-based. The conditions noted are these: Homo sapiens. The method, then: The selected 3 compounds were further analyzed with real-time cell electronic sensing (RT-CES) system to assess the real-time growth behavior of the cells treated with the compounds. Huh7 and Mahlavu liver cancer cells were treated with the selected chalcones and monitored with RT-CES. Results of the compounds were normalized to data of negative control DMSO.
Figure 2 Real-time cell growth analysis. Human liver cancer cells Huh7 (left panel) and Mahlavu (right panel) were treated with the selected compounds. Cell index measurements were obtained by RT-CES software. DMSO was used as negative control. (A) The growth inhibition values of the compounds were obtained by the normalization with DMSO. Experiments were performed in triplicate. (B) IC50 values calculated from RT-CES experiment data. TEXT PRINTED IN THE PICTURE: (B) 1: Huh7 24h: 3.7; Huh7 72h: 5.2; Mahlavu 24h: 1.2; Mahlavu 72h: 2.3 | (B) 9: Huh7 24h: 16.1; Huh7 72h: 11.5; Mahlavu 24h: 4.9; Mahlavu 72h: 6.8 | (B) 11: Huh7 24h: 8.7; Huh7 72h: 8.8; Mahlavu 24h: 4.9; Mahlavu 72h: 6.8 DOUBTS OF THE COPYIST ABOUT THIS PICTURE: Panel B table: the picture prints no measure and no unit for the values
Huh7 and Mahlavu cells were inoculated into the e-plate (1000–2000 cells/well). The attachment, spreading, and proliferation of the cells were monitored every 30 minutes using the Xcelligence® Real-Time Cell Analysis system (ACEA Biosciences Inc.) in a cell culture incubator. […] When cells reach to an cell index (CI) impedance values about 1.5 usually in 24 hours cells were treated with the chalcones 1, 9 and 11. DMSO was used as a negative control. Each experiment was repeated three times. The CI value was noted every 10 minutes for the first 24 hours and then every 30 minutes upon chalcone treatments. The cell inhibition rate calculated as follows (%)=[1-(CItreatedcells/CIDMSO)]×100 .

The test system of another assay is Huh7. As to the kind of experiment: NCI-60 sulforhodamine B (SRB) cytotoxicity assay, Huh7. Format: cell-based, human. To be noted: Homo sapiens, read-out: IC50 Huh7. The method, then: as §1, §2
Primary liver cancer cells Huh7, HepG2, Hep3B, Mahlavu, FOCUS, Snu475 along with hepatic progenitor Dental pulp stem cells were seeded into 96-well plates (1,000–3,000 HCC cell/well and 10,000 cells DPSC/well ) for 24 h. The cells were then treated with increasing concentrations of the chalcones ( 2.5-40μM ). DMSO (AppliChem Biochemica, Darmstadt, Germany) was used as negative control. The growth has stopped at the end of 72 h by fixing cold with 10% (v/v) trichloroacetic acid (Merck, Schuchardt, Germany). Cells were then stained with 0.4% (m/v) of sulforhodamine (Sigma-Aldrich, St. Louis, USA) in 1% acetic acid solution. The absorbency values were acquired at 515 nm. All experiments were done in triplicate.

The next assay has as its system Hep3B. Nature of the assay: NCI-60 sulforhodamine B (SRB) cytotoxicity assay, Hep3B. Format: cell-based, human. The conditions noted are these: Homo sapiens, Hep3B; SRB, 72 h, 2.5–40 μM, triplicate; read-out: IC50 Hep3B. The method, then:
as §1, §2, §3

The subject of a further assay is HepG2. Nature of the assay: NCI-60 sulforhodamine B (SRB) cytotoxicity assay, HepG2. To be noted: Homo sapiens, HepG2; SRB, 72 h, 2.5–40 μM, triplicate; read-out: IC50 HepG2. In kind it is cell-based, human. The method, then:
as §1, §2, §3

The mark [3] stands for this setting: 24h, read-out: IC50 values calculated from RT-CES experiment data, Mahlavu 24h.
[4] abbreviates: 72h, read-out: IC50 values calculated from RT-CES experiment data, Mahlavu 72h.
[5] abbreviates: Huh-7, SRB, 72 h, 2.5–40 μM, triplicate.

The values that follow come from PMC7367369, “A small library of chalcones induce liver cancer cell death through Akt phosphorylation inhibition” (Scientific Reports, 2020).

Molecules are shown by their SMILES. Where two headings read alike, the source gives them in different places.

A word on the IC50: it is the point on the concentration scale where inhibition reaches its midpoint.

Turning to `O=C(/C=C/c1ccc(Cl)cc1)c1ccccc1` [compound 11], the IC50 is 5.3 µM in the assay with Mahlavu [1]; 9 µM in the assay on SNU475; 3.1 µM in the assay with FOCUS; 4.9 µM in the assay on Mahlavu [2] (setting [3]); 6.8 µM with Mahlavu [2] (setting [4]); 4.3 µM with Huh7 (setting [5]). The IC50 with Hep3B stood at 5.9 µM; in the assay on HepG2 it was 6.5 µM.

Take `O=C(/C=C/c1ccccc1)c1ccccc1` [compound 9]: the IC50 is 6.3 µM with Mahlavu [1]; 5 µM with SNU475; 3.3 µM in the assay on FOCUS; 4.9 µM in the assay with Mahlavu [2] (setting [3]); 6.8 µM in the assay with Mahlavu [2] (setting [4]); 5.3 µM in the assay with Huh7 (Huh-7, 72 h). In addition, the IC50 in the assay with Hep3B and in the assay with HepG2 was 7.3 µM throughout.

In the case of `COc1ccc(C(=O)/C=C/c2cccc([N+](=O)[O-])c2)cc1` [compound 1], the IC50 with Mahlavu [1] was below 2.5 µM; with SNU475 it was 3 µM; in the assay with FOCUS, 4.9 µM; in the assay with Mahlavu [2] (setting [3]), 1.2 µM; in the assay on Mahlavu [2] (setting [4]), 2.3 µM; in the assay with Huh7 (setting [5]), below 2.5 µM. Further, the values for the IC50 in the assay on Hep3B and with HepG2 were 6.2 µM and 4.2 µM, respectively.
